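GI50 marks 50% less growth. At the TGI there is no net growth.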
Legend:
Test in all cases: growth of human tumour cells (NCI), 384-well format
HCT-15 colon = tested on: HCT-15 colon
U251 glioblastoma = tested on: U251 glioblastoma
MDA-MB-231 breast = tested on: MDA-MB-231 breast
T-47D breast = tested on: T-47D breast
SR leukemia = tested on: SR leukemia
UO-31 renal = tested on: UO-31 renal
RXF 393 renal = tested on: RXF 393 renal
A498 renal = tested on: A498 renal
DU-145 prostate = tested on: DU-145 prostate
HT29 colon = tested on: HT29 colon
HOP-62 NSCLC = tested on: HOP-62 NSCLC
OVCAR-3 ovarian = tested on: OVCAR-3 ovarian
SN12C renal = tested on: SN12C renal
UACC-257 melanoma = tested on: UACC-257 melanoma
M14 melanoma = tested on: M14 melanoma
SK-MEL-2 melanoma = tested on: SK-MEL-2 melanoma
MDA-MB-435 melanoma = tested on: MDA-MB-435 melanoma
MDA-MB-468 breast = tested on: MDA-MB-468 breast
HOP-92 NSCLC = tested on: HOP-92 NSCLC
NCI-H460 NSCLC = tested on: NCI-H460 NSCLC
A549 NSCLC = tested on: A549 NSCLC
PC-3 prostate = tested on: PC-3 prostate
LOX IMVI melanoma = tested on: LOX IMVI melanoma
SF-268 CNS = tested on: SF-268 CNS
SF-295 CNS = tested on: SF-295 CNS
RPMI-8226 leukemia = tested on: RPMI-8226 leukemia
K-562 leukemia = tested on: K-562 leukemia
IGROV1 ovarian = tested on: IGROV1 ovarian
COLO 205 colon = tested on: COLO 205 colon
OVCAR-5 ovarian = tested on: OVCAR-5 ovarian
HCC-2998 colon = tested on: HCC-2998 colon
BT-549 breast = tested on: BT-549 breast
MOLT-4 leukemia = tested on: MOLT-4 leukemia
CCRF-CEM leukemia = tested on: CCRF-CEM leukemia
786-0 renal = tested on: 786-0 renal
SK-MEL-5 melanoma = tested on: SK-MEL-5 melanoma
NCI/ADR-RES ovarian = tested on: NCI/ADR-RES ovarian
NCI-H23 lung = tested on: NCI-H23 lung
HCT-116 colon = tested on: HCT-116 colon
TK-10 renal = tested on: TK-10 renal
SF-539 CNS = tested on: SF-539 CNS
HL-60(TB) leukemia = tested on: HL-60(TB) leukemia
NCI-H322M lung = tested on: NCI-H322M lung
NCI-H522 lung = tested on: NCI-H522 lung
OVCAR-4 ovarian = tested on: OVCAR-4 ovarian
KM12 colon = tested on: KM12 colon
SW-620 colon = tested on: SW-620 colon
SK-OV-3 ovarian = tested on: SK-OV-3 ovarian
UACC-62 melanoma = tested on: UACC-62 melanoma
NCI-H226 lung = tested on: NCI-H226 lung
CAKI-1 renal = tested on: CAKI-1 renal
MCF7 breast = tested on: MCF7 breast
OVCAR-8 ovarian = tested on: OVCAR-8 ovarian
SK-MEL-28 melanoma = tested on: SK-MEL-28 melanoma
ACHN renal = tested on: ACHN renal
SNB-19 CNS = tested on: SNB-19 CNS

In the case of `CNC(C)C(=O)N[C@H](C(=O)N1CCC[C@@H]1CN(CCc1ccccc1)C(=O)C(F)(F)F)[C@H](C)OCC#CC#CCO[C@H](C)[C@H](NC(=O)[C@H](C)NC)C(=O)N1CCC[C@H]1CN(CCc1ccccc1)C(=O)C(F)(F)F` (some centres not stated), the GI50 (HCT-15 colon) is reported as 21300 nM, the TGI (HCT-15 colon) is reported as over 100000 nM and the GI50 (U251 glioblastoma) is reported as 1710 nM. For the same compound, the TGI (U251 glioblastoma) was 3100 nM, the GI50 (MDA-MB-231 breast) was under 10 nM and the TGI (MDA-MB-231 breast) was under 10 nM. For the same compound, the GI50 (T-47D breast) was 1600 nM, the TGI (T-47D breast) was 2960 nM and the GI50 (SR leukemia) was 342 nM. The TGI (SR leukemia) was 1960 nM, the GI50 (UO-31 renal) was over 100000 nM and the TGI (UO-31 renal) was over 100000 nM. For the same compound, the GI50 (RXF 393 renal) was under 10 nM, the TGI (RXF 393 renal) was 62.5 nM and the GI50 (A498 renal) was 2070 nM. For the same compound, the TGI (A498 renal) was 4560 nM, the GI50 (DU-145 prostate) was 1740 nM and the TGI (DU-145 prostate) was 5180 nM. The GI50 (HT29 colon) was 1690 nM, the TGI (HT29 colon) was 3100 nM and the GI50 (HOP-62 NSCLC) was 906 nM. It also gave a TGI (HOP-62 NSCLC) of 2190 nM, a GI50 (OVCAR-3 ovarian) of 1250 nM and a TGI (OVCAR-3 ovarian) of 2550 nM. The GI50 (SN12C renal) was 2340 nM, the TGI (SN12C renal) was 4060 nM and the GI50 (UACC-257 melanoma) was 1600 nM. It also gave a TGI (UACC-257 melanoma) of 2960 nM, a GI50 (M14 melanoma) of 1800 nM and a TGI (M14 melanoma) of 3210 nM. For the same compound, the GI50 (SK-MEL-2 melanoma) was under 10 nM, the TGI (SK-MEL-2 melanoma) was under 10 nM and the GI50 (MDA-MB-435 melanoma) was 98.1 nM. For the same compound, the TGI (MDA-MB-435 melanoma) was 1940 nM, the GI50 (MDA-MB-468 breast) was under 10 nM and the TGI (MDA-MB-468 breast) was 78.5 nM. The GI50 (HOP-92 NSCLC) was 310 nM, the TGI (HOP-92 NSCLC) was 1780 nM and the GI50 (NCI-H460 NSCLC) was 1680 nM. For the same compound, the TGI (NCI-H460 NSCLC) was 3070 nM, the GI50 (A549 NSCLC) was 3320 nM and the TGI (A549 NSCLC) was 17200 nM. The GI50 (PC-3 prostate) was 4080 nM, the TGI (PC-3 prostate) was 13400 nM and the GI50 (LOX IMVI melanoma) was 2060 nM. It also gave a TGI (LOX IMVI melanoma) of 3510 nM, a GI50 (SF-268 CNS) of 1740 nM and a TGI (SF-268 CNS) of 3130 nM. The GI50 (SF-295 CNS) was 2650 nM, the TGI (SF-295 CNS) was 14500 nM and the GI50 (RPMI-8226 leukemia) was 617 nM. It also gave a TGI (RPMI-8226 leukemia) of 1940 nM, a GI50 (K-562 leukemia) of 1810 nM and a TGI (K-562 leukemia) of 3230 nM. For the same compound, the GI50 (IGROV1 ovarian) was 5720 nM, the TGI (IGROV1 ovarian) was 83400 nM and the GI50 (COLO 205 colon) was 1690 nM. The TGI (COLO 205 colon) was 3080 nM, the GI50 (OVCAR-5 ovarian) was 58900 nM and the TGI (OVCAR-5 ovarian) was over 100000 nM. The GI50 (HCC-2998 colon) was 1310 nM, the TGI (HCC-2998 colon) was 2620 nM and the GI50 (BT-549 breast) was under 10 nM. For the same compound, the TGI (BT-549 breast) was 2160 nM, the GI50 (MOLT-4 leukemia) was 1630 nM and the TGI (MOLT-4 leukemia) was 2990 nM. It also gave a GI50 (CCRF-CEM leukemia) of 25.3 nM, a TGI (CCRF-CEM leukemia) of 1430 nM and a GI50 ([…]-0 renal) of 1760 nM. The TGI (786-0 renal) was 3160 nM, the GI50 (SK-MEL-5 melanoma) was 149 nM and the TGI (SK-MEL-5 melanoma) was 730 nM. The GI50 (NCI/ADR-RES ovarian) was over 100000 nM, the TGI (NCI/ADR-RES ovarian) was over 100000 nM and the GI50 (NCI-H23 lung) was 268 nM. It also gave a TGI (NCI-H23 lung) of 7590 nM, a GI50 (HCT-116 colon) of 1920 nM and a TGI (HCT-116 colon) of 3350 nM. The GI50 (TK-10 renal) was 2520 nM, the TGI (TK-10 renal) was 5600 nM and the GI50 (SF-539 CNS) was 1540 nM. For the same compound, the TGI (SF-539 CNS) was 2880 nM, the GI50 (HL-60(TB) leukemia) was under 10 nM and the TGI (HL-60(TB) leukemia) was under 10 nM. The GI50 (NCI-H322M lung) was 5600 nM, the TGI (NCI-H322M lung) was 22700 nM and the GI50 (NCI-H522 lung) was 906 nM. It also gave a TGI (NCI-H522 lung) of 2150 nM, a GI50 (OVCAR-4 ovarian) of under 10 nM and a TGI (OVCAR-4 ovarian) of under 10 nM. It also gave a GI50 (KM12 colon) of 1720 nM, a TGI (KM12 colon) of 3130 nM and a GI50 (SW-620 colon) of 1820 nM. For the same compound, the TGI (SW-620 colon) was 3240 nM, the GI50 (SK-OV-3 ovarian) was under 10 nM and the TGI (SK-OV-3 ovarian) was 71.9 nM. The GI50 (UACC-62 melanoma) was 1730 nM, the TGI (UACC-62 melanoma) was 3120 nM and the GI50 (NCI-H226 lung) was 3390 nM. It also gave a TGI (NCI-H226 lung) of 16700 nM, a GI50 (CAKI-1 renal) of 6020 nM and a TGI (CAKI-1 renal) of 17700 nM. The GI50 (MCF7 breast) was 1300 nM, the TGI (MCF7 breast) was 2590 nM and the GI50 (OVCAR-8 ovarian) was 1050 nM. It also gave a TGI (OVCAR-8 ovarian) of 2240 nM, a GI50 (SK-MEL-28 melanoma) of 1450 nM and a TGI (SK-MEL-28 melanoma) of 2780 nM. For the same compound, the GI50 (ACHN renal) was over 100000 nM, the TGI (ACHN renal) was over 100000 nM and the GI50 (SNB-19 CNS) was 6770 nM. For the same compound, the TGI (SNB-19 CNS) was 21400 nM.
